Data set [1] is described as follows: in vitro. Conditions: human. On the procedure:
The cytotoxicities of the compounds of Example 1 and the racemic compound (Intermediate 1) were determined in two CD4 cell lines: H9 and CEM.
Compounds for test were serially diluted from 100 μg/ml to 0.3 μg/ml (final concentrations) in 96 well microtitre plates. 3.6×10^4 cells were inoculated into each well of the plates including drug-free controls. After incubation at 37° C. for 5 days, the viable cell count was determined by removing a sample of cell suspension and counting trypan blue excluding cells in a hemocytometer.

For data set [2], the system named is HIV-1 strain RF. The data set can be described thus: microbe, parasite or virus in culture. Conditions: Human immunodeficiency virus 1, MT4, in Homo sapiens, read-out: 50% Antiviral Activity, Formazan. On the procedure:
Antiviral activity of the compound of Example 1 was determined against HIV-1 in the following cell lines.
MT-4 cells, a human T-cell leukaemia cell line, infected with HIV-1 strain RF.
Antiviral activity in C8166 cells was determined by inhibition of syncytium formation (Tochikura et al Virology, 164, 542-546) and in MT-4 cells by inhibition of formazan conversion [Baba et al, Biochem Biophys Res Commun., 142, pp. 128-134 (1987); Mossman, J. Immun. Meth., 65, pp. 55-57 (1983)]. Antiviral activities were also determined by analyzing the amount of HIV p24 antigen synthesized in the presence and absence of enantiomers.

Data set [3] has as its system HIV-1 strain RF. The data set can be described thus: Antiviral activity, inhibition of syncytium formation in C8166 cells. Type of data set: cell-based, HIV-1; C8166 human T-lymphoblastoid cell line.
For data set [4], the system named is HIV p24 antigen (HIV-1 RF). The data set can be described thus: Inhibition of HIV p24 antigen synthesis in C8166 cells. The data set is classed as cell-based, HIV-1; C8166 human T-lymphoblastoid cell line.
Data set [5] concerns CD4 cell lines. Nature of the data set: Cytotoxicity of the enantiomers (general statement). The data set is classed as cell-based. Conditions: in words.
Data set [6] deals with HIV.

One may read the CC50 as the concentration that lowers cell viability or growth by half. A higher CC50 goes with lower toxicity to the cells.

In brackets after ≈: the same amount, converted by molar mass. Where two headings read alike, the source gives them in different places.

`Nc1nc(=O)n([C@@H]2CS[C@H](CO)O2)cc1F` (relative stereo) [Intermediate 1, (±)-Cis-2-hydroxymethyl-5-(5'-fluorocytosin-1'-yl)1,3-oxathiolane]: the CC50 at 120 h in data set [1] (cem cells) is 173 µg/mL (≈ 700 µM); in data set [1] (h9 cells), 232 µg/mL (≈ 938 µM). Further, the IC50 in data set [2] turned out to be 0.065 µg/mL (≈ 0.263 µM).
As to `Nc1nc(=O)n([C@H]2CS[C@@H](CO)O2)cc1F` [(+)-enantiomer, (+)-cis-2-hydroxymethyl-5-(5'-fluorocytosin-1'-yl) -1,3-oxathiolane], the CC50 at 120 h in data set [1] (cem cells) is 217 µg/mL (≈ 878 µM); in data set [1] (h9 cells), 334 µg/mL (≈ 1350 µM). The IC50 in data set [2] was above 1 µg/mL; in data set [3] (Human immunodeficiency virus 1, C8166 cells, HIV-1 RF, read-out: 50% Antiviral Activity, Inhibition of syncytium formation), 0.04 µg/mL (≈ 0.162 µM); in data set [4] (Human immunodeficiency virus 1, C8166 cells, virus RF, read-out: 50% Inhibition HIV p24 Synthesis), 0.1 µg/mL (≈ 0.404 µM). For the same compound, the cytotoxicity result in data set [5] was “unexpectedly low cytotoxicity”.
On to `Nc1nc(=O)n([C@@H]2CS[C@H](CO)O2)cc1F` [(-)-enantiomer, (-)-4-amino-5-fluoro-1-(2-hydroxymethyl-1,3-oxathiolan-5-yl)-(1H)-pyrimidin-2-one], for which the “activity relative to the (+)-enantiomer” value in data set [6] is “much more active than the (+)-enantiomer”. Also, the results for the 50% cytotoxic concentration (CC50) at 120 h in data set [1] (cem cells) and in data set [1] (h9 cells) were 148 µg/mL (≈ 599 µM) and 296 µg/mL (≈ 1200 µM), respectively. Also, in data set [2], the IC50 came to 0.14 µg/mL (≈ 0.566 µM). Further, the cytotoxicity entry in data set [5] was “unexpectedly low cytotoxicity”.
For the compound `Cc1cn([C@H]2C[C@H](N=[N+]=[N-])[C@@H](CO)O2)c(=O)[nH]c1=O` [AZT, 3'-azido-3'-deoxythymidine, reference compound], the IC50 in data set [3] (Human immunodeficiency virus 1, C8166, read-out: 50% Antiviral Activity, Inhibition of syncytium formation) came out at 0.0038 µg/mL (≈ 0.0142 µM); in data set [4] (Human immunodeficiency virus 1, C8166, read-out: 50% Inhibition HIV p24 Synthesis) it was 0.017 µg/mL (≈ 0.0636 µM).

The record behind these values is US5538975A, “1,3-oxathiolane nucleoside compounds and compositions” (BioChem Pharma, Inc., priority 1991, dated 1996).
